Assay results as given in US12509454B2, “Thiadiazolyl derivatives” (IDEAYA Biosciences, Inc., priority 2019, dated 2025).

biological target: Pol theta (1-899) (Homo sapiens (Human), UniProt O75417); assay: Pol theta ATPase activity, NADH oxidation-coupled enzymatic assay; type: biochemical; settings: Pol theta (1-899) 10 nM, ATP, dT50 ssDNA, absorbance 340 nm, 10-point dilution series; read-out: ATPase NADH coupling:Standard Screening:hPolQ IC50
Procedure: The ability of the compounds of Formula (I) to inhibit ATPase activity of Pol theta (1-899) was determined using the assay described below.
Pol Theta ATPase activity was determined by measuring the rate of ATP turn over in a NADH oxidation-coupled enzymatic assay. 10-point dilution series of compounds were used in a 384 well format for the inhibition assays. Pol theta (1-899) (10 nM) in assay buffer (20 mM Tris HCl (pH 7.80), 80 mM KCl, 10 mM MgCl2, 1 mM DTT, 0.01% BSA, 0.01% Tween, 5% glycerol) was transferred to the test wells (20 μL), except the low control wells (20 μL of assay buffer was added to the low control wells). The plate was then incubated at room temperature for 15 min. An equal volume (20 μL) of 100 μM ATP, 300 nM dT50 (single-stranded DNA (ssDNA) containing 50 thymine bases), 300 μM NADH, 6 mM PEP, 10 U/mL lactate dehydrogenase and 20 U/mL pyruvate kinase in assay buffer was added to all the test wells. The plate was then centrifuged at 1000 rpm for 1 min. The reaction was monitored for 30 min by measuring absorbance (λ=340 nm) in a Tecan Spark multimode plate reader every minute. The high control (DMSO with enzyme) with low absorbance intensity represents no inhibition of ATPase reaction while the low control (DMSO with buffer) with high absorbance intensity represents full inhibition of ATPase activity. Slope of the reaction progress curves were used to calculate the rate of ATP hydrolysis. The rates were used to determine the percent inhibition using a four-parameter inhibition model to generate IC50, Hill slope and max inhibition.

Chain of Pol theta (1-899) (O75417 1-899): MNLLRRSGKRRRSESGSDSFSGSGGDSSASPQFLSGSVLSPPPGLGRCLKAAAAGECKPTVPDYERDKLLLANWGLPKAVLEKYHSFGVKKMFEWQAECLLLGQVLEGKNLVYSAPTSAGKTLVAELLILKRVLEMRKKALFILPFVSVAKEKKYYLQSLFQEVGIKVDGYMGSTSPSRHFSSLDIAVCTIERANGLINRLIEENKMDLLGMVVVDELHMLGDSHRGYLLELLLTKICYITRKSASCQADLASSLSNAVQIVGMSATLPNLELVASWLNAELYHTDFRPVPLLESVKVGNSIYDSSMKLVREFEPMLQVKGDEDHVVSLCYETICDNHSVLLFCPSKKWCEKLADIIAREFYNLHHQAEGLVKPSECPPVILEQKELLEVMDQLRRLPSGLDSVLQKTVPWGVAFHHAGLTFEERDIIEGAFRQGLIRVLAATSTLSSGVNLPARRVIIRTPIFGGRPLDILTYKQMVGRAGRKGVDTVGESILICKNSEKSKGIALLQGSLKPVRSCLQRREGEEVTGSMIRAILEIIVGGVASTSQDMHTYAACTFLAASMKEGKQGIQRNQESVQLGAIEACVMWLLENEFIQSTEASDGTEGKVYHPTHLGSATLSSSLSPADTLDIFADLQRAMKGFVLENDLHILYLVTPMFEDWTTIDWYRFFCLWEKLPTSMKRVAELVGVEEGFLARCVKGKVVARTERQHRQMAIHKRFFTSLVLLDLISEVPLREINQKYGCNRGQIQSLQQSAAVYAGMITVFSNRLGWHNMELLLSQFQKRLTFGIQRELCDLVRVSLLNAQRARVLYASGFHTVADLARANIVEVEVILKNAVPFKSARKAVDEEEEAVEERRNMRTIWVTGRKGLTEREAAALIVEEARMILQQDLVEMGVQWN

`COc1ccccc1-n1cncc1C(=O)Nc1nnc(OCc2ccc(Cl)cc2)s1` [Example 50, N-(5-((4-chlorobenzyl)oxy)-1,3,4-thiadiazol-2-yl)-1-(2-methoxyphenyl)-1H-imidazole-5-carboxamide] and `COc1ccccc1-n1cncc1C(=O)Nc1nnc(OCc2ccc(Br)cc2)s1` [Example 86, N-(5-((4-bromobenzyl)oxy)-1,3,4-thiadiazol-2-yl)-1-(2-methoxyphenyl)-1H-imidazole-5-carboxamide] cannot be ordered by IC50: at most 200 nM for the first, at most 200 nM for the second.

`O=C(Nc1nnc(OCc2ccc(Cl)cn2)s1)c1cccnc1-c1ccccc1Cl` [Example 51, 2-(2-chlorophenyl)-N-[5-[(5-chloropyridin-2-yl)methoxy]-1,3,4-thiadiazol-2-yl]pyridine-3-carboxamide] and `COc1ccccc1-c1ncccc1C(=O)Nc1nnc(OCc2ccc(Cl)cc2)s1` [Example 67, N-(5-((4-chlorobenzyl)oxy)-1,3,4-thiadiazol-2-yl)-2-(2-methoxyphenyl)nicotinamide] fall in the same range of IC50: 1000 to 10000 nM for the first, 1000 to 10000 nM for the second.

`O=C(Nc1nnc(OCc2ccc(Cl)cc2)s1)c1cccnc1C1=CCOCC1` [Example 53, N-(5-((4-chlorobenzyl)oxy)-1,3,4-thiadiazol-2-yl)-2-(3,6-dihydro-2H-pyran-4-yl)nicotinamide] and `O=C(Nc1nnc(OCc2ccc(Cl)cc2)s1)c1cccnc1C1CCOCC1` [Example 54, N-[5-[(4-chlorophenyl)methoxy]-1,3,4-thiadiazol-2-yl]-2-(oxan-4-yl)pyridine-3-carboxamide] fall in the same range of IC50: 500 to 1000 nM for the first, 500 to 1000 nM for the second.

Compared with `O=C(Nc1nnc(OCc2ccc(Cl)cc2)s1)c1cncn1C1CCOCC1` [Example 55, N-(5-((4-chlorobenzyl)oxy)-1,3,4-thiadiazol-2-yl)-1-(tetrahydro-2H-pyran-4-yl)-1H-imidazole-5-carboxamide], `O=C(Nc1nnc(OCc2ccc(Cl)cc2)s1)c1ccncc1N1CCOCC1` [Example 59, N-(5-((4-chlorobenzyl)oxy)-1,3,4-thiadiazol-2-yl)-3-morpholinoisonicotinamide] is lower in IC50: 1000 to 10000 nM for the first, 200 to 500 nM for the second.

`O=C(Nc1nnc(OCc2ccc(C3COC3)cc2)s1)c1cccnc1N1CCOCC1` [Example 56, 2-morpholino-N-(5-((4-(oxetan-3-yl)benzyl)oxy)-1,3,4-thiadiazol-2-yl)nicotinamide] and `O=C(Nc1nnc(OCc2ccc(-c3ncco3)cc2)s1)c1cccnc1N1CCOCC1` [Example 65, 2-morpholino-N-(5-((4-(oxazol-2-yl)benzyl)oxy)-1,3,4-thiadiazol-2-yl)nicotinamide] fall in the same range of IC50: 1000 to 10000 nM for the first, 1000 to 10000 nM for the second.

First: O=C(Nc1nnc(OCc2ccc(Cl)cc2)s1)c1ccc(Br)nc1N1CCOCC1 [Example 58, 6-bromo-N-(5-((4-chlorobenzyl)oxy)-1,3,4-thiadiazol-2-yl)-2-morpholinonicotinamide]
Second: N#Cc1ccc(C(=O)Nc2nnc(OCc3ccc(Cl)cc3)s2)c(N2CCOCC2)c1 [Example 72, N-(5-((4-chlorobenzyl)oxy)-1,3,4-thiadiazol-2-yl)-4-cyano-2-morpholinobenzamide]
The IC50 of the first is higher: 500 to 1000 nM for the first, 200 to 500 nM for the second. The second is the more potent here.

Compared with `O=C1CCN(c2ncccc2C(=O)Nc2nnc(OCc3ccc(Cl)cc3)s2)CCN1` [Example 61, N-(5-((4-chlorobenzyl)oxy)-1,3,4-thiadiazol-2-yl)-2-(5-oxo-1,4-diazepan-1-yl)nicotinamide], `O=C1CN(c2ncccc2C(=O)Nc2nnc(OCc3ccc(Cl)cc3)s2)CCCN1` [Example 63, N-(5-((4-chlorobenzyl)oxy)-1,3,4-thiadiazol-2-yl)-2-(3-oxo-1,4-diazepan-1-yl)nicotinamide] is higher in IC50: 500 to 1000 nM for the first, 1000 to 10000 nM for the second.

First: CNC(=O)c1cc(N2CCOCC2)c(C(=O)Nc2nnc(OCc3ccc(Cl)cc3)s2)cn1 [Example 64, N^5-(5-((4-chlorobenzyl)oxy)-1,3,4-thiadiazol-2-yl)-N2-methyl-4-morpholinopyridine-2,5-dicarboxamide]
Second: O=C(O)c1cc(N2CCOCC2)c(C(=O)Nc2nnc(OCc3ccc(Cl)cc3)s2)cn1 [Example 84, 5-((5-((4-chlorobenzyl)oxy)-1,3,4-thiadiazol-2-yl)carbamoyl)-4-morpholinopicolinic acid]
The IC50 of the first is lower: 500 to 1000 nM for the first, 1000 to 10000 nM for the second.

Compared with `O=C(Nc1nnc(OCc2ccc(Cl)cc2)s1)c1cccnc1N1CCOc2ccccc21` [Example 66, N-(5-((4-chlorobenzyl)oxy)-1,3,4-thiadiazol-2-yl)-2-(2,3-dihydro-4H-benzo[b][1,4]oxazin-4-yl)nicotinamide], `Cn1cc(-c2ncccc2C(=O)Nc2nnc(OCc3ccc(Cl)cc3)s2)ccc1=O` [Example 80, N-(5-((4-chlorobenzyl)oxy)-1,3,4-thiadiazol-2-yl)-1′-methyl-6′-oxo-1′,6′-dihydro-[2,3′-bipyridine]-3-carboxamide] is lower in IC50: 1000 to 10000 nM for the first, 200 to 500 nM for the second.

Compared with `O=C(Nc1nnc(OCc2ccc(Cl)cc2)s1)c1cccnc1N1CCN(CCO)C(=O)C1` [Example 68, N-(5-((4-chlorobenzyl)oxy)-1,3,4-thiadiazol-2-yl)-2-(4-(2-hydroxyethyl)-3-oxopiperazin-1-yl)nicotinamide], `O=C(Nc1nnc(OCc2ccc(Cl)cc2)s1)c1cnccc1N1CCN(CCN2CCOCC2)C(=O)C1` [Example 83, N-[5-[(4-chlorophenyl)methoxy]-1,3,4-thiadiazol-2-yl]-4-[4-[2-(morpholin-4-yl)ethyl]-3-oxopiperazin-1-yl]pyridine-3-carboxamide] is lower in IC50: 1000 to 10000 nM for the first, 500 to 1000 nM for the second. The second is the more potent here.

`COc1ccccc1-c1nc(C#N)ccc1C(=O)Nc1nnc(OCc2ccc(Cl)cc2)s1` [Example 71, N-(5-((4-chlorobenzyl)oxy)-1,3,4-thiadiazol-2-yl)-6-cyano-2-(2-methoxyphenyl)-nicotinamide] and `COc1ccccc1-c1ccncc1C(=O)Nc1nnc(OCc2ccc(Cl)cc2)s1` [Example 77, N-[5-[(4-chlorophenyl)methoxy]-1,3,4-thiadiazol-2-yl]-4-(2-methoxyphenyl)pyridine-3-carboxamide] cannot be ordered by IC50: at most 200 nM for the first, at most 200 nM for the second.

`CN(C)C(=O)c1cc(N2CCOCC2)c(C(=O)Nc2nnc(OCc3ccc(Cl)cc3)s2)cn1` [Example 73, N^5-(5-((4-chlorobenzyl)oxy)-1,3,4-thiadiazol-2-yl)-N2,N2-dimethyl-4-morpholinopyridine-2,5-dicarboxamide] and `CC(=O)Nc1cc(N2CCOCC2)c(C(=O)Nc2nnc(OCc3ccc(Cl)cc3)s2)cn1` [Example 78, 6-acetamido-N-(5-((4-chlorobenzyl)oxy)-1,3,4-thiadiazol-2-yl)-4-morpholinonicotinamide] fall in the same range of IC50: 1000 to 10000 nM for the first, 1000 to 10000 nM for the second.

`O=C(Nc1nnc(OCc2ccc(Cl)cc2)s1)c1cccnc1-c1cc[nH]c(=O)c1` [Example 74, N-(5-((4-chlorobenzyl)oxy)-1,3,4-thiadiazol-2-yl)-2′-hydroxy-[2,4′-bipyridine]-3-carboxamide or its tautomer N-(5-((4-chlorobenzyl)oxy)-1,3,4-thiadiazol-2-yl)-2′-oxo-1′,2′-dihydro-[2,4′-bipyridine]-3-carboxamide] and `O=C(Nc1nnc(OCc2ccc(Cl)cc2)s1)c1cccnc1-c1ccc(=O)[nH]c1` [Example 79, N-(5-((4-chlorobenzyl)oxy)-1,3,4-thiadiazol-2-yl)-6′-oxo-1′,6′-dihydro-[2,3′-bipyridine]-3-carboxamide or its tautomer N-(5-((4-chlorobenzyl)oxy)-1,3,4-thiadiazol-2-yl)-6′-hydroxy-[2,3′-bipyridine]-3-carboxamide] fall in the same range of IC50: 500 to 1000 nM for the first, 500 to 1000 nM for the second.

`COc1cc(N2CCOCC2)c(C(=O)Nc2nnc(OCc3ccc(Cl)cc3)s2)cn1` [Example 75, N-(5-((4-chlorobenzyl)oxy)-1,3,4-thiadiazol-2-yl)-6-methoxy-4-morpholino-nicotinamide] and `CNC(=O)c1cc(N2CCNC(=O)CC2)c(C(=O)Nc2nnc(OCc3ccc(Cl)cc3)s2)cn1` [Example 87, N^5-(5-((4-chlorobenzyl)oxy)-1,3,4-thiadiazol-2-yl)-N2-methyl-4-(5-oxo-1,4-diazepan-1-yl)pyridine-2,5-dicarboxamide] fall in the same range of IC50: 500 to 1000 nM for the first, 500 to 1000 nM for the second.

`N#Cc1ccc(C(=O)Nc2nnc(OCc3ccc(Cl)cc3)s2)c(N2CCNC(=O)C2)n1` [Example 76, N-(5-((4-chlorobenzyl)oxy)-1,3,4-thiadiazol-2-yl)-6-cyano-2-(3-oxopiperazin-1-yl)nicotinamide] and `N#Cc1ccc(C(=O)Nc2nnc(OCc3ccc(Br)cc3)s2)c(N2CCNC(=O)C2)n1` [Example 88, N-(5-((4-bromobenzyl)oxy)-1,3,4-thiadiazol-2-yl)-6-cyano-2-(3-oxopiperazin-1-yl)nicotinamide] cannot be ordered by IC50: at most 200 nM for the first, at most 200 nM for the second.

`COc1ccccc1-n1nncc1C(=O)Nc1nnc(OCc2ccc(F)cc2)s1` [Example 82, N-(5-((4-fluorobenzyl)oxy)-1,3,4-thiadiazol-2-yl)-1-(2-methoxyphenyl)-1H-1,2,3-triazole-5-carboxamide] and `N#Cc1ccc(C(=O)Nc2nnc(OCc3ccc(Br)cc3)s2)c(N2CCOC3(CC3)C2)n1` [Example 85, N-(5-((4-bromobenzyl)oxy)-1,3,4-thiadiazol-2-yl)-6-cyano-2-(4-oxa-7-azaspiro[2.5]octan-7-yl)nicotinamide] cannot be ordered by IC50: at most 200 nM for the first, at most 200 nM for the second.
